According to paper PMC11448502, “Cryo-EM structures of the human P2X1 receptor reveal subtype-specific architecture and antagonism by supramolecular ligand-binding” (Nature Communications, 2024):
“And” between values parts separate entries of the source, which are not always exact repeats. Equal values may be shown once. Read-outs that look alike come from different tables or passages of the source.

How the values were obtained:
[1] = test system: platelets; conditions: ex vivo; cited from earlier work
[2] = biological target: T1, hP2X1 WT (Homo sapiens, UniProt P51575); assay: NF449 inhibition dose response (IC50), TEVC in oocytes; format: cell-based
T1 construct: hP2X1 mRNA that was made from linearized full-length wild-type or mutant pcDNA 3.1x; expressed in transfected cells; host or cells: Xenopus laevis oocytes (mRNA injection)
T1 sequence (P51575 1-399): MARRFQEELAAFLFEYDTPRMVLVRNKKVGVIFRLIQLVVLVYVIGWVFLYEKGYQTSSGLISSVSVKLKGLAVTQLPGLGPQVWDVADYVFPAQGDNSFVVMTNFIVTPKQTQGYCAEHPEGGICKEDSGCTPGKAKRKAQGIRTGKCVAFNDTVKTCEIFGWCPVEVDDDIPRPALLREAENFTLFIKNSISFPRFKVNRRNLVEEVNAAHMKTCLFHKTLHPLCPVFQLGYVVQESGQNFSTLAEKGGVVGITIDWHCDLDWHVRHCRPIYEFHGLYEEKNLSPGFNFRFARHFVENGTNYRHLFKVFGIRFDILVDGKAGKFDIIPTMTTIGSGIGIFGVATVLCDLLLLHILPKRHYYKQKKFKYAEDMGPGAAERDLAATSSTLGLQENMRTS
Protocol: Oocytes were purchased defolliculated from Ecocyte Bioscience in Barth’s Solution (88 mM NaCl, 1 mM KCl, 0.82 mM MgSO4, 0.33 mM Ca(NO3)2, 0.41 mM CaCl2, 2.4 mM NaHCO3, 5 mM Tris-HCl) supplemented with penicillin (100 U/mL) and streptomycin (100 µg/mL). Xenopus laevis oocytes were then injected with 50 nL of 100 ng/μL hP2X1 mRNA that was made from linearized full-length wild-type or mutant pcDNA 3.1x according to the protocol provided in the mMessage mMachine kit (Invitrogen). Injected oocytes were allowed to express for ~20 hours at 18 °C before recording was performed.
Data acquisition was performed using the Oocyte Clamp OC-725C amplifier and pClamp 8.2 software. Buffers were applied using a gravity fed RSC-200 Rapid Solution Changer that flows at ~5 mL/min. All experiments use Sutter filamented glass 10 cm in length with an inner diameter of 0.69 mm and an outer diameter of 1.2 mm to impale oocytes and clamp the holding voltage at −60 mV. Experiments were recorded in buffer containing 10 mM HEPES (pH 7.4), 140 mM NaCl, 5 mM KCl, 2 mM CaCl2, 2 mM MgCl2, and 10 mM glucose.
To test a dilution series of an antagonist at discrete concentrations, 10 µM ATP (2 mM ATP for K309A only) was first applied to evoke an initial maximum current. The oocyte was then washed with buffer for one minute, followed by one minute application of an antagonist test-concentration, and concluded by co-application of the same test concentration with 10 µM ATP (2 mM ATP for K309A). The antagonized signal was then normalized against the initial ATP excitatory signal. Each test concentration was performed in triplicate across different oocytes. The data was then fit to a nonlinear regression named “[inhibitor] vs. response – Variable slope (four parameters)” in Prism 9 to produce a sigmoidal curve and afford an IC50 value. Each singular condition was used to generate an average which is reported plus or minus its standard deviation between three discrete trials.

[3] = test system: P2X1; parameters: method as in doi.org/10.1074/jbc.M114.592246; conditions: reviewer comment; ref doi.org/10.1074/jbc.M114.592246; cited from earlier work
[4] = test system: P2X3; parameters: method as in doi: 10.1111/bph.15299; conditions: reviewer comment, ref doi: 10.1111/bph.15299, read-out: EC50 of ATP; cited from earlier work
[5] = biological target: P2X7 receptor; parameters: method as in PMID 33125712, PMID 18657557; conditions: read-out: apparent affinity for ATP, cited from earlier work

| Structure (SMILES) | effect on platelet activation [1] | Normalized Current ([2]; [NF449] 1.600E-10 M) | Normalized Current ([2]; [NF449] 3.200E-11 M) | Normalized Current ([2]; [NF449] 6.400E-12 M) | Normalized Current ([2]; [NF449] 8.000E-10 M) | Hill coefficient [3] | EC50 [4] | EC50 [5] | EC50 ([5]; under certain conditions) |
| --- | --- | --- | --- | --- | --- | --- | --- | --- | --- |
| O=C(Nc1cc(C(=O)Nc2ccc(S(=O)(=O)O)cc2S(=O)(=O)O)cc(C(=O)Nc2ccc(S(=O)(=O)O)cc2S(=O)(=O)O)c1)Nc1cc(C(=O)Nc2ccc(S(=O)(=O)O)cc2S(=O)(=O)O)cc(C(=O)Nc2ccc(S(=O)(=O)O)cc2S(=O)(=O)O)c1 [NF449, 4,4’,4”,4’’’-(carbonylbis(imino-5,1,3-benzenetriylbis(carbonylimino)))tetrakis-benzene-1,3-disulfonic acid] | inhibitory effect | 0.9675 and 0.945 and 0.9562 | 1.007 and 0.9213 and 1.004 | 1.049 and 0.9637 and 0.9878 | 0.5214 and 0.4548 and 0.5008 | ~ 1.4 |  |  |  |
| Nc1ncnc2c1ncn2[C@@H]1O[C@H](COP(=O)(O)OP(=O)(O)OP(=O)(O)O)[C@@H](O)[C@H]1O [ATP] |  |  |  |  |  |  | 0.5 to 1 µM | > 100 µM | > 1000 µM |
